From US12377119B2, “Natural killer cells” (IMPERIAL COLLEGE INNOVATIONS LIMITED, priority 2018, dated 2025)
“Also recorded” adds a separate entry of the source.

Assays:
REV-ERBα = molecular target: T1, REV-ERBα (Homo sapiens, UniProt P20393); assay: Dual-luciferase Bmal-luc reporter assay in HEK293T cells transfected with REV-ERBα; type: cell-based; conditions: 10 μM
T1 construct: expressed in transfected cells; host or cells: HEK293T
T1 sequence (P20393 1-614): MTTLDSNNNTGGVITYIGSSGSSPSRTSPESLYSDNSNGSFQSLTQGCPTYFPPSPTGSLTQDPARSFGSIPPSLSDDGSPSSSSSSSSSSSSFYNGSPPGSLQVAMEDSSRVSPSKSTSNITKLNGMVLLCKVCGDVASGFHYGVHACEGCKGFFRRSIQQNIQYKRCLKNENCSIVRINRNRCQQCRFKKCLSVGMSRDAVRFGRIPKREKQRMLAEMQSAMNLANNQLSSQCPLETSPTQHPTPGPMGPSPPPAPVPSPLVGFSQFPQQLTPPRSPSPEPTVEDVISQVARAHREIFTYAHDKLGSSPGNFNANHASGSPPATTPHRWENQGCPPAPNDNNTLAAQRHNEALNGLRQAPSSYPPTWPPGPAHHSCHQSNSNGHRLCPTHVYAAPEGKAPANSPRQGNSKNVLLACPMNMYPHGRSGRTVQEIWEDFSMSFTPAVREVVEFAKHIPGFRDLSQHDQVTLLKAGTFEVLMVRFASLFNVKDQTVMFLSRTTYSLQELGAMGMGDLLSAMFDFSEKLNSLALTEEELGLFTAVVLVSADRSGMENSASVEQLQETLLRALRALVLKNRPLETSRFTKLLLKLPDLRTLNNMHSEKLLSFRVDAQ
Procedure: HEK293T cells were defrosted and maintained in DMEM supplemented with 10% FCS and 1% P/S at 37° C. and 5% CO2. Cells were plated in a 24-well plate (7·10^4 cells/well in 0.5 mL of DMEM+10% FCS). 24 h after seeding, cells were transfected with 100 ng of Bmal-luc, 10 ng of pRL-CMV Renilla as an internal control and 10 ng of REV-ERBα or the empty vector pcDNA3 as a control. All conditions were equalled to a total of 400 ng of DNA by using BSM. In order to prepare transfection samples, calculated amounts of DNA needed for each condition were prepared in Opti-MEM and Fugene was added in a 5:2 Fugene:DNA ratio. Mixtures were vortexed to assure homogeneity and left to incubate for 15 min at rt. Afterwards, each DNA mix was transferred into the 24-well plate containing the pre-seeded cells, with each condition repeated by triplicate. 5 h after transfection, cells were treated with compounds 2-12, AG1-AG5 or DMSO as vehicle. Solution of the compounds in DMEM were prepared at a double concentration than the final desired one, and 0.5 mL of these solutions were added to each well. 24 h after transfection, cells were lysed and luciferase activity was measured using Dual-Luciferase Reporter Assay System E2920 (Promega). To perform the experiment, cells were lysed by adding 50 μL of passive lysis buffer (PLB) (1:5 dilution) to each well and gently stirring for 30 min. Each cell lysate was transferred to a 96-well plate. 50 μL of Dual-Glo reagent were dispensed into each well, tapped gently to mix and incubated for 10 min. Luminescence of firefly luciferase was measured using a Tecan VICTOR Light Luminescent counter equipment. Then, 50 μL of Stop&Glo reagent were dispensed to quench firefly activity and activate Renilla luciferase, incubated for 10 min and measured. Firefly activity was normalized to Renilla luciferase activity. Results were analysed using Welch's corrected parametric t-test.
(§1) The method of Example 2 was repeated using Compounds 70 to 72 (generated as described in Example 1). Compounds 4, 7 and 11 (tested in Example 2) were used as a positive control for REV-ERB inhibitory activity, agonist compound AG2 (also tested in Example 2) and DMSO were also tested as comparators.
The method of Example 2 was repeated using Compounds 64 to 66, 69 and 70 to 73 (generated as described in Example 1). Once again, Compounds 4, 7 and 11 (tested in Example 2) were used as a positive control for REV-ERB inhibitory activity, agonist compound AG2 (also tested in Example 2) and DMSO were also tested as comparators.
as §1, with “16” for “70”, “19, 27, 28 and 44” for “72”, “1). Once again,” for “1).”

NK cells = NK cells development assay (Lin− bone marrow cells co-cultured with OP9 stromal cells, flow cytometry); type: cell-based, mouse
Procedure: Mice. All mice used in this study were wild type on a C57BL/6 background, between six and twelve weeks old. All animal husbandry and experimental procedures were performed according to UK Home Office regulations and institute guidelines.
OP9 cell line and cell culture. OP9 is a stromal cell line from mouse bone marrow known to support lymphocyte differentiation of hematopoietic progenitors when co-culturing with them. OP9-GFP cells were cultured in Iscove's Modified Dulbecco's Medium (IMDM) (Sigma-Aldrich) supplemented with 20% Fetal Bovine Serum (FBS) and 1% Penicillin/[…] (P/S). They were split into 24-well plates with 2500 cells per well two days before transferring Lin− cells onto them. Cells were kept in a 5% CO2 humidified atmosphere at 37 QC. Lineage negative cells isolation from bone marrow. Mouse leg and hip bones were crushed in Phosphate Buffered Saline (PBS) with 2% FBS to release bone marrow cells. Cell suspension was filtered through a […] strainer, topped up to 40 mL with PBS+2% FBS and centrifuged at 500×g for 4 minutes. Cells were resuspended in 2 mL PBS+2% FBS and stained with phycoerythrin (PE)-conjugated cocktail (20 μL anti-B220 (RA3/6B2), 20 μL anti-CD2 (RM2-5), 20 μL anti-Ter119 (TER119), 20 μL anti-NK1.1 (PK136), 5 μL anti-CD11b (M1/70) and 5 μL Gr1 (RB6-8C5) antibodies (all from eBioscience) for 5 minutes at 4° C. Then, cells were washed, centrifuged and incubated with anti-PE Microbeads (Miltenyi) for 15 minutes at 4° C. Next, cells were washed with PBS and passed through LD column (Miltenyi), enabling the negative selection of unstained Lin− cells that flowed through the column. 50 μL of cells were taken to check the purity after depletion using flow cytometry. In vitro NK cell development from lineage negative cells. Lin− cells were plated in 24-well plates with 5×10^5 cells in 1 mL of Dulbecco's Modified Eagle Medium (DMEM) (Sigma-Aldrich) supplemented with 10% embryonic stem cell-qualified FBS (ES-FBS), 1% P/S, 50 μM β-Mercaptoethanol (β-ME), 10 ng/ml Flt3-ligand (Flt3L) (R&D Systems), 10 ng/mL IL-7 (R&D Systems) and 100 ng/mL stem cell factor (SCF) (R&D Systems) per well and cultured for 2 days. Cells were transferred for co-culture with OP9-GFP stromal cells in 24-well plates with 3×10^4 cells in 1 mL of Alpha MEM (Sigma-Aldrich) supplemented with 20% ES-FBS, 1% P/S, 50 μM β-ME and 10 ng/mL IL-15 (R&D Systems) per well and cultured for […]. Compounds were added on day 2, at the same time as cells were transferred together with OP9. Supernatant was removed on day 5, and new media was added with compound. Cells were kept in a 5% CO2 humidified atmosphere at 37° C.
Flow cytometry. After being cultured for 7 days, cells were harvested, filtered through 40 μm strainers to remove OP9 cells and washed with PBS. After centrifuging at 500×g for 5 minutes at 4° C., they were stained with appropriate fluorochrome conjugated antibodies with 1:300 dilution in 100 μL of fluorescent activated cell sorting (FACS) buffer (PBS with 1% BSA) for 15 minutes at 4° C. in the dark. Antibodies include CD3(e450), NK1.1(APC), NKp46(Percp e710) and PI, all of which are anti-mouse and from eBioscience. Cells were then washed in 1 ml FACS buffer, centrifuged and resuspended in 300 μL FACS buffer. Compensation was set up using Anti-Mouse Ig, k and Anti-Rat/Hamster Ig, k Compensation Particles Set (BDTM Combead). Flow cytometry analysis was carried out using BD LSRFortessa™ cell analyser (Becton Dickinson Bioscience) and data analysis was performed using FlowJo.
The method of Example 7 was repeated using 5 μM of Compounds 7 and 11, and 5 and 10 μM of Compound 72.

[1] = FIG. 3, three independent experiments in triplicate, comparison with SR8278
[2] = FIG. 4, two independent experiments in triplicate, comparison with SR8278
[3] = 5 μM, FIG. 10, compared with SR8278
[4] = FIG. 10 legend, concentration not stated there (5 μM for 7 and 11, 5 and 10 μM for 72), compared with SR8278 and AG2
[5] = FIG. 7, three independent experiments in triplicate
[6] = 10 μM, FIG. 9, compared with SR8278

SMILES | Effect on REV-ERBα activity (Bmal-luc luciferase expression) (REV-ERBα; [1]) | Effect on REV-ERBα activity (Bmal-luc luciferase expression) (REV-ERBα; [2]) | Total number of NK cells (NK cells; [3]) | Total number of NK cells (NK cells; 10 μM, FIG. 10, compared with SR8278) | Total number of NK cells (NK cells; [4]) | Effect on REV-ERBα activity (Bmal-luc luciferase expression) (REV-ERBα; [5]) | Total number of NK cells (NK cells; [6])
CCOC(=O)C1Cc2ccccc2CN1C(=O)c1cccc2ccccc12 (centres unmarked) [AG1] | agonists |  |  |  |  |  | 
CCOC(=O)CN(Cc1ccccc1)C(=O)c1ccco1 (racemic) [Compound 72] |  | inhibitory effect on REV-ERB greater than that obtained using SR8278; also recorded: significant antagonistic activity | significant increase in the total number of NK cells compared with SR8278 | significant increase in the total number of NK cells compared with SR8278 | significant increase in NK cell number |  | 
CCOC(=O)C1Cc2ccccc2CN1C(=O)c1ccno1 (racemic) [Compound 8, Ethyl 2-(isoxazole-5-carbonyl)-1,2,3,4-tetrahydrolsoquinoline3-carboxylate] | significant increase in luciferase expression compared with SR8278; also recorded: significant antagonistic activity |  |  |  |  |  | 
CSc1ccc(C(=O)N2Cc3ccccc3CC2COc2ccc(OC(C)(C)C)cc2)s1 (centres unmarked) [AG5] | agonists |  |  |  |  | agonist | 
CCOC(=O)C1Cc2ccccc2CN1C(=O)c1ccnc(C)c1 (racemic) [Compound 28] |  |  |  |  |  | Inhibitory effect on REV-ERB was observed; also recorded: significant antagonistic activity | 
CCOC(=O)C1Cc2ccccc2CN1C(=O)c1scnc1C (racemic) [Compound 12, Ethyl 2-(4-methylthiazole-5-carbonyl)-1,2,3,4-tetrahydrolsoquinoline-3-carboxylate] | significant increase in luciferase expression compared with SR8278; also recorded: significant antagonistic activity |  |  |  |  |  | 
CCOC(=O)C1Cc2ccccc2CN1C(=O)c1ocnc1C (racemic) [Compound 11, Ethyl 2-(4-methyloxazole-5-carbonyl)-1,2,3,4-tetrahydrolsoquinoline-3-carboxylate] | significant increase in luciferase expression compared with SR8278; also recorded: significant antagonistic activity | significant antagonistic activity | significant increase in the total number of NK cells compared with SR8278 |  | significant increase in NK cell number | significant antagonistic activity | increase in the total number of NK cells compared with SR8278
CCOC(=O)C1Cc2ccccc2CN1C(=O)c1cccnc1F (racemic) [Compound 27] |  |  |  |  |  | Inhibitory effect on REV-ERB was observed; also recorded: significant antagonistic activity | 
CCOC(=O)C1Cc2ccccc2CN1C(=O)c1ccco1 (racemic) [Compound 7, Ethyl 2-(furan-2-carbonyl)-1,2,3,4-tetrahydrolsoquinoline-3-carboxylate] | significant increase in luciferase expression compared with SR8278; also recorded: significant antagonistic activity | significant antagonistic activity | significant increase in the total number of NK cells compared with SR8278 |  | significant increase in NK cell number | significant antagonistic activity | significant increase in NK cell number
